Assay results published in US11324709B2, “Fatty acid amides and uses thereof in the treatment of addiction disorder and addiction related conditions” (Yissum Research Development Company of The Hebrew …, priority 2017, dated 2022).
Where two headings read alike, the source gives them in different places.

Columns and labels:
[1] = system: nicotine-dependent mice; settings: cited from earlier work
[2] = system: mice; settings: cited from earlier work
[3] = system: ICR mice; test: Cannabinoid tetrad behavioral assessment; type: in vivo, mouse; settings: i.p.
Protocol: (§1) Male C57BL/6 mice (Charles River, Italy) weighing 18-20 g were used for the mild TBI Weight Drop (WD) model. Mice were housed three per cage under controlled illumination (12 h light/dark cycle; light on 6:00 A.M.) and standard environmental conditions (ambient temperature 20-22° C., humidity 55-60%) for at least 1 week before the beginning of experiments. Animal chow and tap water were available ad libitum. Male ICR mice (6-8 weeks old; Harlan, Indianapolis, Ind.) with a body mass of 27-32 g served as subjects in all in vivo pharmacology experiments. Mice were group-housed (four per cage) on a 12/12 light/dark cycle (lights on at 0600 h) and given food and water ad libitum. All animal protocols were approved by the Virginia Commonwealth University Institutional Animal Care and Use Committee, were in accordance with the National Institutes of Health Guide for the Care and Use of Laboratory Animals (Institute of Laboratory Animal Resources, 2011), and by the Animal Ethics Committee of The Second University of Naples, in compliance with Italian (D.L. 116/92) and European Commission (O.J. of E.C. L358/1 18/12/86) regulations on the protection of laboratory animals. All efforts were made to reduce both animal numbers and suffering during the experiments.
[^2H]8AEA, [^2H]52-AG, [^2H]4 PEA, [^2H]4 OEA, [^2H]8 N-arachidonoyldopamine (NADA), [^2H]8AraSer and [^2H]8AraGly were purchased from Cayman Chemicals (MI, USA). OlGly was synthetized in the Mechoulam laboratory and CP55,940 ((−)-cis-3-[2-hydroxy-4-(1,1-dimethylheptyl)phenyl]-trans-4-(3-hydroxypropyl)cyclohexanol) and morphine sulfate were generously provided by NIDA (Rockville, Md.). OlGly and CP55,940 were dissolved in a vehicle solution consisting of ethanol (5% of total volume), alkamuls-620 (Sanofi-Aventis, Bridgewater, N.J.) (5% of total volume), and saline (0.9% NaCl) (90% of total volume). Oleoyl glycine and CP55,940 were given via the intraperitoneal (i.p.) route of administration. (−)-Nicotine hydrogen tartrate [(−)-1-methyl-2-(3-pyridyl)pyrrolidine (+)-bitartrate] and mecamylamine HCl were purchased from Sigma-Aldrich Inc. (St. Louis, Mo., USA). Morphine sulfate [morphine hemi[sulfate pentahydrate]] Nicotine and mecamylamine (2 mg/kg) were dissolved in physiological saline and given via the subcutaneous (s.c.) route of administration in a volume of 10 ml/kg. For the nicotine CPP study, 0.5 mg/kg nicotine dose was used because this dose reliably produces significant CPP in ICR mouse (18). Morphine CPP was performed with 10 mg/kg (s.c.) as recently described (19). For nicotine withdrawal studies, 24 mg/kg/day nicotine or saline was continuously perfused for 14 days using s.c. osmotic minipumps (model 2000; Alzet Corporation, Cupertino, Calif.) that were implanted under isoflurane anesthesia. This prolonged nicotine administration regimen reliably produces significant withdrawal syndrome in the three behavioral paradigms used here.
Mice were acclimated to the test environment for at least 1 h prior to testing for tetrad components: spontaneous activity, catalepsy, antinociception, and hypothermia (7-9). In the locomotor studies, subjects were administered vehicle or drug and 5 min later were placed into clear acrylic boxes (approx. 44.5 cm×22.25 cm×20.0 cm) contained within sound-attenuating cabinets equipped with an LED light source and fans for general air circulation and creation of white noise. The distance traveled (cm) and time spent immobile (s) for each mouse were collected and recorded for 10 min using Fire-i™ digital cameras purchased from Unibrain (San Ramon, Calif., USA) and ANY-maze™ video tracking software purchased from Stoelting Company (Wood Dale, Ill., USA). Mice were assessed for baseline tail withdrawal latencies and body temperature, given an intraperitoneal (i.p.) injection of vehicle or drug (OlGly), and 30 min later assessed in the following order: catalepsy, tail withdrawal test, and body temperature. […]

[4] = system: Sprague-Dawley rats; test: Potential of OlGly to produce a CPP or CPA (place conditioning, Experiment 1); type: in vivo, rat; settings: 5 mg/kg ip
Protocol: Rats (n=12) received two conditioning trials with oleoyl glycine. On each trial they received intraperitoneal (ip) injections of 5 mg/kg oleoyl glycine or VEH (24 hr apart; counterbalanced order) 20 minutes prior to placement in the conditioning box lined with the grid or hole floor (counterbalanced) for 20 minutes.

[5] = system: ICR mice; test: Morphine CPP in mice; type: in vivo, mouse; settings: OlGly 30 mg/kg i.p., morphine 10 mg/kg s.c. for 3 days
Protocol: as §1, with “the experiments. […]” for “the experiments.”

[6] = system: Sprague-Dawley rats
[7] = system: Sprague-Dawley rats; test: Establishment of naloxone precipitated MWD-induced conditioned place aversion (Experiment 2); type: in vivo, rat
Protocol: Rats (n=22) received two 3-day conditioning cycles in order to attain a naloxone precipitated MWD-induced place avoidance. On Day 1, the floor opposite to the assigned drug floor was paired with a s.c. saline injection. Ten minutes after a saline injection, the rats were placed into the conditioning box with the assigned saline-paired floor for 20 minutes while their locomotion was tracked with Ethovision. On Day 2, the rats received a high dose of morphine (20 mg/kg) s.c., 24 h after the saline conditioning trial the previous day. After the injection, they were placed in an empty shoebox cage and monitored for signs of respiratory distress and stimulated when necessary until they recovered and were returned to the home cage. On Day 3, 24 h post morphine injections, the rats were injected with either VEH (n=12) or OlGly (n=12) 10 min prior to receiving an s.c. injection of naloxone. Ten min later they were placed into the conditioning box with the assigned naloxone-paired floor for 20 minutes while their locomotion was tracked using Ethovision. Four days later, all rats underwent a second 3-day conditioning cycle. Five days following the last naloxone trial, a 10 min drug-free test trial was performed. The test trial consisted of the same procedures as the pre-test trial, but rats were given a s.c. saline injection 10 min prior to the test. […]

In the case of `CCCCCCCC/C=C\CCCCCCCC(=O)NCC(=O)O` [OlGly, oleoyl glycine], the precipitated withdrawal responses [1] is listed as “reduced”, the “withdrawal induced place aversion” value [1] is listed as “reduced” and the nicotine-induced place preference [2] is listed as “interfered”. The “place preference or place aversion produced by OlGly itself” value [2] was “neither a place preference nor a place aversion”, the “cataleptic responses (bar test)” value [3] was “did not elicit cataleptic responses” and the “antinociception (tail immersion)” value ([3]; FIG. 5A) was “did not produce”. For the same molecule, the hypothermia ([3]; FIG. 5B) was “did not produce”, the “motor behavior: distance traveled” value ([3]; FIG. 5C) was “did not produce” and the “motor behavior: speed” value ([3]; FIG. 5D) was “did not produce”. The “motor behavior: immobility time” value ([3]; FIG. 5E) was “did not produce”, the “motoric effects during conditioning (activity measure) compared to VEH” value [4] was “no motoric effects” and the “time spent on the oleoyl glycine paired floor (mean)” value ([4]; 10 min drug-free test trial, VEH paired floor 232.16 sec) was 299.00 s. For the same molecule, the “preference or aversion for the drug paired floor” value ([4]; two conditioning trials, drug-free test trial) was “did not produce a significant preference or aversion”, the melting point was 93 to 94 °C (dec.) and the “expression of morphine CPP” value [5] was “did not attenuate”. For the same molecule, the “establishment of a morphine-induced place preference” value ([6]; 5 mg/kg OlGly i.p. 10 min prior to morphine 10 mg/kg s.c.) was “did not modify”, the “establishment of a morphine-induced place preference” value ([6]; 30 mg/kg OlGly i.p. 10 min prior to morphine 10 mg/kg s.c.) was “did not modify” and the “establishment of the naloxone precipitated MWD-induced CPA” value ([7]; 5 mg/kg OlGly 10 min prior to naloxone, drug by floor interaction p=0.017) was “significantly interfered”. For the same molecule, the “activity during the conditioning trials” value ([7]; pretreatment with 5 mg/kg OlGly, naloxone conditioning trials) was “did not modify activity”.
